Tested on: 186277-243-T-J2-PDC complex spheroid growth
Assay: Anticancer human tumor 186277-243-T-J2-PDC patient-derived colon adenocarcinoma cell line growth inhibition [AhR]
Conditions: for IC50: curve of first compound; for viability, T/C: stronger effect = lower value
How it was run: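 Agents were dosed in half-log steps down from roughly clinical Cmax, or from 10 microM where Cmax was unknown, alone and with AhR antagonists. Read-out: percent test/control growth of tumor spheroids containing HUVEC and MSC stromal cells.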

[1] = second compound 0.1 µM, first compound 0.0316 µM
[2] = second compound 0.1 µM, first compound 0.1 µM
[3] = second compound 0.1 µM, first compound 0.316 µM
[4] = second compound 0.1 µM, first compound 1 µM
[5] = second compound 0.1 µM, first compound 3.16 µM
[6] = second compound 0.1 µM, first compound 10 µM
[7] = second compound 0.316 µM, first compound 0.0316 µM
[8] = second compound 0.316 µM, first compound 0.1 µM
[9] = second compound 0.316 µM, first compound 0.316 µM
[10] = second compound 0.316 µM, first compound 1 µM
[11] = second compound 0.316 µM, first compound 3.16 µM
[12] = second compound 0.316 µM, first compound 10 µM
[13] = second compound 1 µM, first compound 0.0316 µM
[14] = second compound 1 µM, first compound 0.1 µM
[15] = second compound 1 µM, first compound 0.316 µM
[16] = second compound 1 µM, first compound 1 µM
[17] = second compound 1 µM, first compound 3.16 µM
[18] = second compound 1 µM, first compound 10 µM
[19] = second compound 3.16 µM, first compound 0.0316 µM
[20] = second compound 3.16 µM, first compound 0.1 µM
[21] = second compound 3.16 µM, first compound 0.316 µM
[22] = second compound 3.16 µM, first compound 1 µM
[23] = second compound 3.16 µM, first compound 3.16 µM
[24] = second compound 3.16 µM, first compound 10 µM
[25] = second compound 10 µM, first compound 0.0316 µM
[26] = second compound 10 µM, first compound 0.1 µM
[27] = second compound 10 µM, first compound 0.316 µM
[28] = second compound 10 µM, first compound 1 µM
[29] = second compound 10 µM, first compound 3.16 µM
[30] = second compound 10 µM, first compound 10 µM
[31] = second compound 0.1 µM, first compound 0.00316 µM
[32] = second compound 0.1 µM, first compound 0.01 µM
[33] = second compound 0.316 µM, first compound 0.00316 µM
[34] = second compound 0.316 µM, first compound 0.01 µM
[35] = second compound 1 µM, first compound 0.00316 µM
[36] = second compound 1 µM, first compound 0.01 µM
[37] = second compound 3.16 µM, first compound 0.00316 µM
[38] = second compound 3.16 µM, first compound 0.01 µM
[39] = second compound 10 µM, first compound 0.00316 µM
[40] = second compound 10 µM, first compound 0.01 µM
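Also: spheroids exposed to compounds for seven days before the viability read.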
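For viability, T/C in this document: luminescent signal used as a stand-in for viable cell amount; 100% = DMSO vehicle control wells.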

Row | IC50 (second compound 0.1 µM) [nM] | IC50 (second compound 0.316 µM) [nM] | IC50 (second compound 1 µM) [nM] | IC50 (second compound 3.16 µM) [nM] | IC50 (second compound 10 µM) [nM] | Structure (SMILES) | viability, T/C [1] [%] | viability, T/C [2] [%] | viability, T/C [3] [%] | viability, T/C [4] [%] | viability, T/C [7] [%] | viability, T/C [8] [%] | viability, T/C [9] [%] | viability, T/C [10] [%] | viability, T/C [13] [%] | viability, T/C [14] [%] | viability, T/C [15] [%] | viability, T/C [19] [%] | viability, T/C [20] [%] | viability, T/C [25] [%] | viability, T/C [26] [%] | further results
1 | > 10000 | > 10000 | > 10000 | > 10000 | > 10000 | CC(C)c1c(-c2ccccc2)nc2c(C#N)c[nH]n2c1=O + Cc1ccccc1N=Nc1ccc(NC(=O)c2ccnn2C)c(C)c1 | 97.4 | 110 | 104 | 105 | 103 | 104 | 103 | 98 | 98.9 | 106 | 115 | 95.2 | 108 | 102 | 97.2 | viability, T/C [5]: 109%; viability, T/C [6]: 97.5%; viability, T/C [11]: 112%; viability, T/C [12]: 98%; viability, T/C [16]: 96.4%; viability, T/C [17]: 98.3%; viability, T/C [18]: 104%; viability, T/C [21]: 94.3%; viability, T/C [22]: 99.7%; viability, T/C [23]: 99.7%; viability, T/C [24]: 98.7%; viability, T/C [27]: 92.6%; viability, T/C [28]: 101%; viability, T/C [29]: 85.8%; viability, T/C [30]: 90.1%
2 | > 10000 | > 10000 | > 10000 | > 10000 | 9260 | COc1ccc([C@@H](O)c2cc(-c3ncnc4cc(N5CCOCC5)ccc34)c(F)cc2Cl)nn1 + Cc1ccccc1N=Nc1ccc(NC(=O)c2ccnn2C)c(C)c1 | 100 | 98 | 92.9 | 80.2 | 96.5 | 104 | 93.6 | 80 | 96.5 | 101 | 101 | 97.1 | 89.4 | 76.3 | 81.9 | viability, T/C [5]: 89.6%; viability, T/C [6]: 55.8%; viability, T/C [11]: 86.4%; viability, T/C [12]: 52.2%; viability, T/C [16]: 98%; viability, T/C [17]: 104%; viability, T/C [18]: 62.7%; viability, T/C [21]: 89.7%; viability, T/C [22]: 79.8%; viability, T/C [23]: 76.2%; viability, T/C [24]: 54.2%; viability, T/C [27]: 91%; viability, T/C [28]: 80.5%; viability, T/C [29]: 90.9%; viability, T/C [30]: 47.5%
3 | 2130 | 1440 | 1600 | 1450 | 48.5 | COc1cc(C2c3cc4c(cc3C(OC3OC5COC(C)OC5C(O)C3O)C3COC(=O)C23)OCO4)cc(OC)c1O (stereo not given) + Cc1cncc(-c2nc(NCCc3c[nH]c4ccccc34)c3ncn(C(C)C)c3n2)c1 | 119 | 111 | 113 | 58.7 | 119 | 124 | 107 | 53.4 | 110 | 149 | 99.8 | 127 | 147 | 55 | 44.5 | viability, T/C [5]: 52%; viability, T/C [6]: 21.9%; viability, T/C [11]: 48%; viability, T/C [12]: 21.1%; viability, T/C [16]: 59.5%; viability, T/C [17]: 44.6%; viability, T/C [18]: 19.9%; viability, T/C [21]: 89.3%; viability, T/C [22]: 59.4%; viability, T/C [23]: 42.7%; viability, T/C [24]: 19.9%; viability, T/C [27]: 20.8%; viability, T/C [28]: 24.3%; viability, T/C [29]: 22.9%; viability, T/C [30]: 9.36%

The remaining lines, values behind:

Row | Structure (SMILES) | IC50 (second compound 0.1 µM) [nM] | IC50 (second compound 0.316 µM) [nM] | IC50 (second compound 1 µM) [nM] | IC50 (second compound 3.16 µM) [nM] | IC50 (second compound 10 µM) [nM] | viability, T/C [1] [%] | viability, T/C [2] [%] | viability, T/C [3] [%] | viability, T/C [4] [%] | viability, T/C [7] [%] | viability, T/C [8] [%] | viability, T/C [9] [%] | viability, T/C [10] [%] | viability, T/C [13] [%] | viability, T/C [14] [%] | viability, T/C [15] [%] | viability, T/C [19] [%] | viability, T/C [20] [%] | viability, T/C [25] [%] | viability, T/C [26] [%] | further results
4 | CC[C@@]1(O)C(=O)OCc2c1cc1n(c2=O)Cc2cc3c(CN(C)C)c(O)ccc3nc2-1 + Cc1cncc(-c2nc(NCCc3c[nH]c4ccccc34)c3ncn(C(C)C)c3n2)c1 | > 100 | > 100 | > 100 | > 100 | 1.33 | 92.6 | 62 | – | – | 86.2 | 64.8 | – | – | 85.2 | 69.4 | – | 87.4 | 68.9 | 31 | 39 | viability, T/C (second compound 0.1 µM, first compound 0.000316 µM): 98.8%; viability, T/C (second compound 0.1 µM, first compound 0.001 µM): 96.3%; viability, T/C [31]: 118%; viability, T/C [32]: 112%; viability, T/C (second compound 0.316 µM, first compound 0.000316 µM): 107%; viability, T/C (second compound 0.316 µM, first compound 0.001 µM): 101%; viability, T/C [33]: 104%; viability, T/C [34]: 135%; viability, T/C (second compound 1 µM, first compound 0.000316 µM): 99.6%; viability, T/C (second compound 1 µM, first compound 0.001 µM): 108%; viability, T/C [35]: 125%; viability, T/C [36]: 140%; viability, T/C (second compound 3.16 µM, first compound 0.000316 µM): 118%; viability, T/C (second compound 3.16 µM, first compound 0.001 µM): 109%; viability, T/C [37]: 145%; viability, T/C [38]: 135%; viability, T/C (second compound 10 µM, first compound 0.000316 µM): 49.5%; viability, T/C (second compound 10 µM, first compound 0.001 µM): 57.9%; viability, T/C [39]: 38.7%; viability, T/C [40]: 28.6%
5 | COc1cccc2c1C(=O)c1c(O)c3c(c(O)c1C2=O)CC(O)(C(=O)CO)CC3OC1CC(N)C(O)C(C)O1 (stereo not given) + Cc1cncc(-c2nc(NCCc3c[nH]c4ccccc34)c3ncn(C(C)C)c3n2)c1 | 200 | 171 | 163 | 126 | < 31.6 | 107 | 78.6 | 32.6 | 0.46 | 110 | 70.4 | 28.2 | 0.27 | 93.2 | 71.3 | 21.2 | 83.5 | 59.9 | 21.9 | 18.5 | viability, T/C [5]: 0.03%; viability, T/C [6]: 0.25%; viability, T/C [11]: 0.04%; viability, T/C [12]: 0.22%; viability, T/C [16]: 0.08%; viability, T/C [17]: 0.32%; viability, T/C [18]: 0.26%; viability, T/C [21]: 10.8%; viability, T/C [22]: 0.05%; viability, T/C [23]: 0.21%; viability, T/C [24]: 0.79%; viability, T/C [27]: 3.26%; viability, T/C [28]: 0.12%; viability, T/C [29]: 0.49%; viability, T/C [30]: 0.31%
6 | Nc1ncn(C2CC(O)C(CO)O2)c(=O)n1 (stereo not given) + Cc1cncc(-c2nc(NCCc3c[nH]c4ccccc34)c3ncn(C(C)C)c3n2)c1 | > 1000 | > 1000 | > 1000 | > 1000 | > 1000 | 91.4 | 119 | 147 | 143 | 107 | 113 | 137 | 150 | 99.9 | 126 | 156 | 111 | 118 | 56.7 | 46.6 | viability, T/C [31]: 116%; viability, T/C [32]: 86.8%; viability, T/C [33]: 120%; viability, T/C [34]: 93.6%; viability, T/C [35]: 98.5%; viability, T/C [36]: 104%; viability, T/C [16]: 157%; viability, T/C [37]: 114%; viability, T/C [38]: 113%; viability, T/C [21]: 120%; viability, T/C [22]: 165%; viability, T/C [39]: 59.8%; viability, T/C [40]: 65.1%; viability, T/C [27]: 52.6%; viability, T/C [28]: 68.6%
